Article PMC7613620, “Reaction hijacking of tyrosine tRNA synthetase as a whole-of-life-cycle antimalarial strategy” (Science (New York, N.Y.), 2022)
Read-outs that look alike come from different tables or passages of the source.

Columns and labels:
[1] = target: T1, HsYRS (Homo sapiens, UniProt P54577); experiment: Tyrosine acylation of cognate tRNATyr by HsYRS; assay type: biochemical; details: YRS 0.25 μM, ATP 10 μM, 37°C 1 h
T1 construct: made in house; host or cells: E. coli BL21(DE3), pET-11a
T1 sequence (P54577 1-364): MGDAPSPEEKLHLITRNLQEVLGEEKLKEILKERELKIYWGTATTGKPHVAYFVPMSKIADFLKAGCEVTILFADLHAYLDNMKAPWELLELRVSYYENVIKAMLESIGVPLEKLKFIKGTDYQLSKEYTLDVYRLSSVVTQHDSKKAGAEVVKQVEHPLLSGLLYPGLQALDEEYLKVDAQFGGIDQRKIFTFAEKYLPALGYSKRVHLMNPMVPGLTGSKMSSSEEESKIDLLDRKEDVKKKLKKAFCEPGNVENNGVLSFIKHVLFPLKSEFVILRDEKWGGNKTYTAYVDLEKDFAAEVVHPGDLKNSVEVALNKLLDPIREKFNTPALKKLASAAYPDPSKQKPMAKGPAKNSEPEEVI

[2] = target: T1, HsYRS; experiment: Differential scanning fluorimetry, HsYRS; assay type: binding; details: in the presence of ML901 plus substrates
Protocol: This DNA template and its complementary strand were custom-synthesized by Sigma-
(§1) 810 (HiScribe™ T7 Quick High Yield RNA Synthesis Kit, NEB). On the following day, the reaction mixture
820 was sealed and analysed using StepOnePlus Real-Time PCR system (Applied Biosystems). The samples
The thermal unfolding curve was plotted
The melting temperature (Tm), defined as the
Reactions were conducted in 50 mM Tris-
Reactions were conducted in 50 mM Tris-HCL, pH 7.6,

[3] = test system: H460; experiment: H460 cell viability (ATP content); assay type: cell-based; details: Homo sapiens, NCI-H460, 72 h, read-out: H460 IC50(72h)
Protocol: (§2) 574 H1650 is a human lung cancer derived ATG7-null cell line (49) that can be used to assess effects on targets
(§3) 576 adenocarcinoma; bronchoalveolar carcinoma). Other cells lines used are: H460 (NCI-H460; human lung;
(§4) 577 carcinoma; large cell lung cancer; ATCC: HTB-177); and HCT116 (human colon; colorectal carcinoma;
(§5) 578 ATCC: CCL-247; Lot : 5056139). Each of the cell lines was received from the American Type Culture
(§6) 579 Collection (ATCC) and passaged twice before freezing. Cells were cultured in the presence or absence of
(§7) 580 inhibitors and cell viability was assessed by comparing the ATP content in compound-treated wells with
(§8) 581 that in DMSO-treated wells as previously described (11). […]
(§9) 585 37°C humidified incubator as adherent semi-confluent monolayers in complete Dulbecco’s Modified Eagle
(§10) 586 Media (c-DMEM). DMEM (Gibco™, Thermo Fisher Scientific, Australia) was supplemented with 10%

[4] = target: PfYRS (Plasmodium falciparum, UniProt Q8IAR7); experiment: ATP consumption by PfYRS (Kinase-Glo); assay type: biochemical
Protocol: 804 An intron was detected in the PftRNATyr sequence, that was not indicated in PlasmoDB. A T7 RNA
805 polymerase promoter sequence was added to the 5’ end of the DNA sequence of P. falciparum and H.
806 sapiens tRNATyr. This DNA template and its complementary strand were custom-synthesized by Sigma-
807 Aldrich. Two oligonucleotides were annealed at 95°C for 5 min and the double-stranded DNA template
808 was used for in vitro transcription. The transcription reaction was incubated at 37°C overnight. The reaction
809 mixture consists of template DNA, T7 RNA polymerase and NTP mix as per manufacturer's instructions
as §1
811 was treated with DNase I at 37°C for 15 min. tRNA was purified using RNA clean-up spin columns
812 (Monarch® RNA Cleanup Kit, NEB) to remove contaminants from the transcription reaction. […]
820 was sealed and analysed using StepOnePlus Real-Time PCR system (Applied Biosystems). […]
822 as the first derivative curve of the raw fluorescence values. […]
824 values were calculated from DTm using the equation: ln(KD/[L]) = -131.5 x (∆Tm/Tm,apo) - 1.9, where [L] […]
828 Consumption of ATP by YRS was measured using a luciferase-based assay as per the manufacturer’s […]
836 The aminoacylation activity of YRS was measured by the incorporation of tritiated L-tyrosine into tRNATyr […]

[5] = test system: H1650; experiment: H1650 cell viability (ATP content); assay type: cell-based; details: Homo sapiens, NCI-H1650, read-out: H1650 IC50(72h); 72 h; ATG7-null cell line
Protocol: as §2, §3, §4, §5, §6, §7, §8, §9, §10

Chain of PfYRS (Q8IAR7 entry or part of it): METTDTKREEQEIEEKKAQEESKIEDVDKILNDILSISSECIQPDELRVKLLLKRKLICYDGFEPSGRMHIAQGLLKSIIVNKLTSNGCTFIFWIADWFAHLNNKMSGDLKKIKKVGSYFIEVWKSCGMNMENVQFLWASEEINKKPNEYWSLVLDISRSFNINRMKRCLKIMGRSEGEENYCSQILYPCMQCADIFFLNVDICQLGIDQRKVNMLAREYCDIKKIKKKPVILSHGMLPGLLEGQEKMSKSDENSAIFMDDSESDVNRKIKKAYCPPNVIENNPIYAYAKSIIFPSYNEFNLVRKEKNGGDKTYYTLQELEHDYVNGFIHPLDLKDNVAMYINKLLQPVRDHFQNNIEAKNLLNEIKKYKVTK

## Nc1ncnc2c1c(OC(F)F)nn2[C@@H]1O[C@H](COS(N)(=O)=O)[C@@H](O)[C@H]1O [ML901]
[1]
  IC50: > 500 µM
[2]
  thermal stabilization of HsYRS: not stabilized
[3]
  IC50: 4.65 µM
[4]; in the absence of cognate tRNATyr, read-out: IC50 (-PftRNATyr), ATP consumption by PfYRS
  IC50: > 500 µM
[4]; in the presence of cognate tRNATyr, read-out: IC50 (+PftRNATyr), ATP consumption by PfYRS
  IC50: 25 µM
[5]
  IC50: 10.7 µM
